SMILES strings stand for the structures. Some results are limits rather than exact numbers.

Here are results for 38 molecules from ChEMBL document CHEMBL1125372, “Crystal-structure-based design and synthesis of benz[cd]indole-containing inhibitors of thymidylate synthase” (J Med Chem, 1992).

Test [1] deals with CCRF-CEM. The test can be described thus: Inhibition of cellular growth by the MTT colorimetric assay in CCRF-CEM, human lymphoblasticof T-cell origin. Background: Formazan colour is commonly taken as a measure of viable cells.
Test [2] concerns GC3/MTK-. Briefly: Inhibition of cellular growth by the MTT colorimetric assay in GC3/M TK-, a human thymidine kinase deficient adenocarcinoma line.
Test [3] concerns L1210. The test can be described thus: Inhibition of cellular growth by the MTT colorimetric assay in L1210, murine leukemia cell line. Particulars: Mus musculus.
Test [4] addresses Thymidylate synthase (Homo sapiens) (UniProt P04818).
Description: (§1) Inhibitory activity against thymidylate synthase from human
Test [5] has the same target. This is another data set of the same source.
Description: as §1
The target of test [6] is Thymidylate synthase (Escherichia coli) (UniProt C3SWJ7).
Thymidylate synthase (Escherichia coli), sequence (C3SWJ7 1-264): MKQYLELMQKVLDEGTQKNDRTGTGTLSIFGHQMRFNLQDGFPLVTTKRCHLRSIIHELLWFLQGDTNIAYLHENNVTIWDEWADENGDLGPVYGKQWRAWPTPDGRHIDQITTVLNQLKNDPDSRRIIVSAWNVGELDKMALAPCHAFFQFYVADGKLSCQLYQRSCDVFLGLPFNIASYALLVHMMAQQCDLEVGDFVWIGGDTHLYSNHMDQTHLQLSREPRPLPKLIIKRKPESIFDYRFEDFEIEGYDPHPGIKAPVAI
Description: Inhibitory activity against thymidylate synthase from Escherichia coli
Test [7] shares this target. This is another data set of the same source.
Description: Compound was evaluated for its inhibitory activity against thymidylate synthase from Escherichia coli
Test [8] in a line: Compound was evaluated for thymidylate shift expressed as the ratio of the IC50 in the presence of […] uM thymidylate divided by the IC50 with no thymidylate added.

Thymidylate synthase (Homo sapiens), sequence (P04818 2-313 limits assumed): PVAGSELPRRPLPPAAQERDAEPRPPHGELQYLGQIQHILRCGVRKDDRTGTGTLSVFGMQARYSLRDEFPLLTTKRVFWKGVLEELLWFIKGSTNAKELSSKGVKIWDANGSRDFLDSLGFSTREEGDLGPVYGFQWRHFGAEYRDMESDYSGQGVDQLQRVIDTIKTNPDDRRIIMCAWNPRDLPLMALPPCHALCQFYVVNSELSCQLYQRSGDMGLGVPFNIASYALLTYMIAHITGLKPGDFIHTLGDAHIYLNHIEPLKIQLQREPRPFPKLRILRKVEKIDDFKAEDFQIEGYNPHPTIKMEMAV

On to `CSCN(Cc1ccc(S(=O)(=O)c2ccccc2)cc1)c1ccc2c3c(cccc13)C(=O)N2`, for which the IC50 was 2.8 µM in test [1], more than 10 µM in test [2] and 2.1 µM in test [3].
The corresponding values for `CN(Cc1ccc(S(=O)(=O)N2CCOCC2)cc1)c1ccc2c3c(ccc(Cl)c13)C(=O)N2` are more than 5 µM, more than 5 µM and more than 5 µM.
Taken in the same sequence, the figures for `COc1ccc(S(=O)(=O)c2ccc(CN(C)c3ccc4c5c(ccc(C)c35)C(N)=N4)cc2)cc1` were 0.4 µM, 0.97 µM and 0.31 µM.
Taken in the same sequence, the figures for `CN(Cc1ccc(S(=O)(=O)c2ccccc2)cc1)c1ccc2c3c(cccc13)C(NO)=N2` were 2 µM, more than 5 µM and 0.81 µM.
For `CN(Cc1ccc(S(=O)(=O)N2CCOCC2)cc1)c1ccc2c3c(ccc(Cl)c13)C(N)=N2`, the values for the concentration for half-maximal inhibition (IC50) in test [1], in test [2] and in test [3] were 0.9 µM, 1.4 µM and 0.44 µM, respectively.
Taken in the same sequence, the figures for `CSc1ccc2c3c(ccc(N(C)Cc4ccc(S(=O)(=O)N5CCOCC5)cc4)c13)N=C2N` were 3.1 µM, 6.9 µM and 1.9 µM.
As to `CN(Cc1ccc(S(=O)(=O)c2ccccc2)cc1)c1ccc2c3c(cccc13)C(NN)=N2`, the IC50 is 1.3 µM in test [1], more than 10 µM in test [2] and 2.4 µM in test [3].
Taken in the same sequence, the figures for `COc1ccc(S(=O)(=O)c2ccc(CN(C)c3ccc4c5c(ccc(C)c35)C(=O)N4)cc2)cc1` were 4 µM, more than 5 µM and 2 µM.
For the molecule `Cc1ccc2c3c(ccc(N(C)Cc4ccc(S(=O)(=O)c5ccc([N+](=O)[O-])cc5)cc4)c13)N=C2N`, the IC50 in test [1] was determined as 0.69 µM; in test [2], 0.91 µM; in test [3] it was 0.57 µM.
Taken in the same sequence, the figures for `CN(Cc1ccc(S(=O)(=O)N2CCOCC2)cc1)c1ccc2c3c(cccc13)C(=O)N2` were more than 5 µM, more than 5 µM and more than 5 µM.
For `Cc1ccc2c3c(ccc(N(C)Cc4ccc(S(=O)(=O)N5CCOCC5)cc4)c13)N=C2N`, the figures for the IC50 in test [1], in test [2] and in test [3] were 0.22 µM, 0.44 µM and 0.22 µM, respectively.
Consider `Cc1ccc2c3c(ccc(N(C)Cc4ccc(S(=O)(=O)c5ccc(N)cc5)cc4)c13)N=C2N`, for which the IC50 in test [1] worked out at 0.2 µM; in test [2], 0.27 µM; in test [3], 0.28 µM.
The corresponding values for `O=C1Nc2ccc(N(CCO)Cc3ccc(S(=O)(=O)N4CCNCC4)cc3)c3cccc1c23` are 31 µM, more than 50 µM and 50 µM.
For `CNC1=Nc2ccc(N(C)Cc3ccc(S(=O)(=O)c4ccc(OC)cc4)cc3)c3c(C)ccc1c23`, the results for the IC50 in test [1], in test [2] and in test [3] were 0.89 µM, 1.5 µM and 0.72 µM, respectively.
The corresponding values for `CN(Cc1ccc(S(=O)(=O)c2ccc([N+](=O)[O-])cc2)cc1)c1ccc2c3c(cccc13)C(=O)N2` are 2.8 µM, more than 5 µM and 2 µM.
Taken in the same sequence, the figures for `CC(C)N(Cc1ccc(S(=O)(=O)N2CCNCC2)cc1)c1ccc2c3c(cccc13)C(=O)N2` were 6.8 µM, 5.9 µM and 3.9 µM.
`CN(Cc1ccc(S(=O)(=O)c2ccc(O)cc2)cc1)c1ccc2c3c(cccc13)C(N)=N2`: the IC50 worked out at 2.7 µM in test [1], 4.05 µM in test [2] and 2.1 µM in test [3].
Regarding `COc1ccc(S(=O)(=O)c2ccc(CN(C)c3ccc4c5c(ccc(C)c35)C(NO)=N4)cc2)cc1`, the concentration for half-maximal inhibition (IC50) in test [1] is 5 µM; in test [2] it was more than 10 µM; in test [3], 4.1 µM.
Taken in the same sequence, the figures for `O=C1Nc2ccc(NCc3ccc(S(=O)(=O)c4ccccc4)cc3)c3cccc1c23` were more than 4 µM, more than 4 µM and 2.3 µM.
Consider `CCN(Cc1ccc(S(=O)(=O)c2ccccc2)cc1)c1ccc2c3c(cccc13)C(=O)N2`, for which the IC50 in test [1] is more than 3.33 µM; in test [2] it was 3.33 µM; in test [3] it was 3.05 µM.
For the molecule `CN(Cc1ccc(S(=O)(=O)N2CCOCC2)cc1)c1ccc2c3c(cccc13)C(=N)N2`, the values for the IC50 in test [1], in test [2] and in test [3] were 0.46 µM, 0.9 µM and 0.49 µM, respectively. In addition, the Kii in test [4] stood at 0.015 µM; in test [6] it was 5.4 µM. Besides, the Kis turned out to be 0.012 µM in test [5] and 1.8 µM in test [7].
Consider `COc1ccc(S(=O)(=O)c2ccc(CN(C)c3ccc4c5c(cccc35)C(=O)N4)cc2)cc1`, for which the IC50 in test [1] turned out to be 3 µM; in test [2] it was 10 µM; in test [3], 4.6 µM.
Taken in the same sequence, the figures for `Cc1ccc2c3c(ccc(N(C)Cc4ccc(S(=O)(=O)c5ccccc5)cc4)c13)NC2=O` were 4.8 µM, more than 5 µM and 1.9 µM.
Regarding `Cc1ccc2c3c(ccc(N(C)Cc4ccc(S(=O)(=O)c5ccc([N+](=O)[O-])cc5)cc4)c13)NC2=O`, the IC50 in test [1] is 2.4 µM; in test [2], more than 5 µM; in test [3], 0.89 µM.
Taken in the same sequence, the figures for `Cc1ccc2c3c(ccc(NCc4ccc(S(=O)(=O)c5ccccc5)cc4)c13)NC2=O` were 2.5 µM, more than 5 µM and 2 µM.
The corresponding values for `CNC1=Nc2ccc(N(C)Cc3ccc(S(=O)(=O)N4CCOCC4)cc3)c3cccc1c23` are more than 5 µM, more than 5 µM and 1.8 µM.
Taken in the same sequence, the figures for `Cc1ccc2c3c(ccc(N(C)Cc4ccc(S(=O)(=O)c5ccc(N)cc5)cc4)c13)NC2=O` were 5 µM, more than 5 µM and 3.3 µM.
As to `CN(Cc1ccc(S(=O)(=O)c2ccc(O)cc2)cc1)c1ccc2c3c(cccc13)C(=O)N2`, the IC50 in test [1] was 9.5 µM; in test [2], 9.5 µM; in test [3], 10 µM.
In the case of `Cc1ccc2c3c(ccc(N(C)Cc4ccc(S(=O)(=O)N5CCOCC5)cc4)c13)NC2=O`, the concentration for half-maximal inhibition (IC50) in test [1] is 3.9 µM; in test [2], more than 5 µM; in test [3], 2.6 µM.
The corresponding values for `CC(=O)c1cccc2c(N(C)Cc3ccc(S(=O)(=O)c4ccc(N)cc4)cc3)ccc(N)c12` are 5.9 µM, more than 10 µM and 9.1 µM.
Taken in the same sequence, the figures for `COc1ccc(S(=O)(=O)c2ccc(CN(C)c3ccc4c5c(cccc35)C(N)=N4)cc2)cc1` were 2.1 µM, 2.1 µM and 1.2 µM.
Consider `CNC1=Nc2ccc(N(C)Cc3ccc(S(=O)(=O)N4CCOCC4)cc3)c3c(C)ccc1c23`, for which the IC50 in test [1] was 0.61 µM; in test [2] it was 0.21 µM; in test [3] it was 0.18 µM. This molecule displayed a Kii in test [6] of 0.088 µM. For the same molecule, the Kis in test [7] was 0.055 µM.
`CNC1=Nc2ccc(N(C)Cc3ccc(S(=O)(=O)c4ccccc4)cc3)c3cccc1c23`: the IC50 in test [1] turned out to be 3.3 µM; in test [2] it was 3.4 µM; in test [3], 1.6 µM.
On to `CCN(Cc1ccc(S(=O)(=O)c2ccccc2)cc1)c1ccc2c3c(cccc13)C(N)=N2`, for which the IC50 turned out to be 1.25 µM in test [1], 3 µM in test [2] and 0.7 µM in test [3].
Regarding `CCCN(Cc1ccc(S(=O)(=O)N2CCNCC2)cc1)c1ccc2c3c(cccc13)C(=O)N2`, the IC50 in test [1] was found to be 3.1 µM; in test [2], 5.4 µM; in test [3], 2.9 µM.
The corresponding values for `CSC1Nc2ccc(N(C)Cc3ccc(S(=O)(=O)c4ccc(O)cc4)cc3)c3cccc1c23` (stereo unspecified) are more than 4 µM, more than 4 µM and more than 4 µM.
As for `O=C1Nc2ccc(N(CCCO)Cc3ccc(S(=O)(=O)N4CCNCC4)cc3)c3cccc1c23`, the IC50 amounted to 15 µM in test [1], 30 µM in test [2] and 21.5 µM in test [3].
Regarding `Cc1ccc2c3c(ccc(N(C)Cc4ccc(S(=O)(=O)c5ccccc5)cc4)c13)N=C2N`, the values for the IC50 in test [1], in test [2] and in test [3] were 0.36 µM, 0.52 µM and 0.25 µM, respectively. Also, in test [8], the Thymidylate shift worked out at 3.85.

In general, IC50 refers to the point on the concentration scale where inhibition reaches its midpoint. A lower IC50 goes with inhibition by little substance.
